# System: Connaught BCG within primary CD14+ human monocytes
# Format: cell-based
substance,measurement,setting,value
PACMA-31 [reference compound],"effect of PDIA1 inhibitor on GzmA-mediated mycobacterial inhibition, BCG",PACMA-31 200 nM or Rutin 50 μM pretreatment combined with GzmA-WT,enhanced mycobacterial inhibitory activity
same,"intracellular bacterial burden, PDIA1 inhibitor alone","PACMA-31 200 nM or Rutin 50 μM, 30 min pretreatment, no GzmA",did not influence the intracellular bacterial burden

# From US20240100133A1, “ENZYMATICALLY INACTIVE GRANZYME A AND USES THEREFORE” (Saint Louis University, priority 2022, published 2024)
